`Cc1ccc(Nc2snc(O)c2C#N)cc1` returned a melting point of 232 to 234 °C. As for `COc1cc2c(cc1C(=O)CCl)C(=O)CO2`, the figure is 176 to 178 °C; as for `NNc1cc(C(F)(F)F)nc2ncnn12`, 230 to 232 °C; as for `O=C(CCl)Nc1cccc(Cl)c1`, 70 to 72 °C.

With `Nc1cc(Cl)c(Cl)cn1`, the melting point was 140 to 142 °C. As for `Nc1cc(-c2ccc(F)cc2F)on1`, the figure is 122 to 124 °C; as for `Oc1ncncc1Br`, 193 to 195 °C.

`Nc1cccc(OCCc2ccccc2)c1` came in with a melting point of 139 to 141 °C. As for `CC(=O)Nc1ccc(N)c(C(F)(F)F)c1`, the figure is 118 to 120 °C. Regarding `C#CCSc1cccc(C(=O)O)c1`, the melting point was 121 to 123 °C. As for `Cc1cccnc1C(=O)NN`, the figure is 76 to 78 °C; as for `Fc1ccc(Br)c(-c2nn[nH]n2)c1`, 193 to 195 °C. As for `CC(C)(C)OC(=O)Nc1ccc(C(F)(F)F)cc1N`, the figure is 140 to 142 °C. As for `Cc1ccc(-c2nnc(S)o2)cc1C`, the figure is 195 to 197 °C; as for `Cc1ccc(C(=O)CCC(=O)O)s1`, 99 to 101 °C; as for `CN(C(=O)CCl)C(C)(C)C#N`, 55 to 57 °C. Regarding `COc1ccc2nc(C)cc(O)c2c1`, the melting point was in the range of 284 to 286 °C.

With `O=C(c1ccc(Br)o1)N1CCNCC1`, the melting point was 118 to 120 °C.

Turning to `OC1(CCOc2ccccc2)CC1`, the melting point was in the range of 57 to 59 °C. With `Cc1ccccc1-n1cnnc1S`, the melting point is 144 to 146 °C. The molecule `CN1NC=C2CN=C(Cl)N=C21` returned a melting point of 189 to 191 °C. As for `CC1(c2ccsc2)NC(=O)NC1=O` (configuration not stated), the figure is 151 to 153 °C; as for `OCc1ccc(Cc2ccccc2)cc1`, 37 to 39 °C; as for `Cc1cc(F)ccc1-n1ccc(C(=O)O)n1`, 197 to 199 °C. With `OCCc1ccc(O)c(-n2nc3ccccc3n2)c1`, the melting point lay in the range of 120 to 123 °C. `O=C(O)c1cnc(Cl)cc1Cl` gave a melting point of 158 to 160 °C. As for `O=C(Nc1ccccn1)OCC(F)(F)F`, the figure is 150 to 152 °C; as for `Nc1ncn(CC(=O)NCc2ccccc2)n1`, 181 to 183 °C. Molecule `COC(=O)NC(=O)CCl` displayed a melting point of 147 to 151 °C.

`O=C(O)c1cnoc1-c1cccs1`: the melting point is 198 to 200 °C. The molecule `NCCS(=O)(=O)Cc1ccccc1` had a melting point of 76 to 78 °C. Then `CC(C)(C)OC(=O)Nc1ccsc1Br`, with 69 to 71 °C. As for `NC(=O)C(F)(F)c1ccccc1`, the figure is 116 to 118 °C; as for `COc1ccccc1-n1c(C)nnc1SCC(=O)O`, 169 to 171 °C.

On to `CNc1ccc(Br)cn1`, for which the melting point was 69 to 71 °C. Molecule `Nc1ccc(S(=O)(=O)Nc2ccccc2Cl)cc1` showed a melting point of 159 to 161 °C. As for `O=C(O)c1cc(-c2ccccc2)n(-c2ccccn2)n1`, the figure is 194 to 196 °C; as for `O=c1[nH]c(-c2ccncc2)no1`, 259 to 261 °C; as for `CC1(c2cccc([N+](=O)[O-])c2)NC(=O)NC1=O` (configuration not stated), 178 to 180 °C.

`Cc1nc(NC(=O)OC(C)(C)C)sc1C(N)=O`: the melting point lay in the range of 279 to 281 °C. `N#Cc1ccc(CCC(=O)O)cc1`: the melting point was 137 to 139 °C.

The molecule `O=C1CC(C(=O)O)CCN1` (configuration not stated) gave a melting point of 164 to 166 °C. Molecule `N#Cc1ccccc1-c1ccc(CN)cc1` returned a melting point of 53 to 55 °C. Take `O=C1CCS(=O)(=O)c2c(F)cccc21`: the melting point lay in the range of 181 to 183 °C.

In the case of `Nc1ccc2c(Br)ccc(Cl)c2n1`, the melting point fell in the range of 249 to 251 °C.

For `O=C(O)c1ccc(S(=O)(=O)C(F)F)cc1`, the melting point was in the range of 232 to 234 °C. `O=C(O)CC(=O)NC1CC1`: the melting point was in the range of 99 to 101 °C. As for `Nc1sc2c(c1C(=O)c1cccc(Cl)c1)CCC2`, the figure is 129 to 131 °C.

Consider `ClCc1coc(-c2ccccc2Br)n1`, for which the melting point was in the range of 46 to 48 °C. For the molecule `CCOCCCNC(=O)CCl`, the melting point lay in the range of 25 to 27 °C. `O=C(Nc1cc(Cl)ccc1C(=O)O)c1cccs1` showed a melting point of 267 to 269 °C.

Consider `CC(C)(C)OC(=O)N1CCC(OS(C)(=O)=O)CC1`, for which the melting point lay within 84 to 86 °C. Then `O=c1c2sccc2nc(S)n1Cc1ccccc1`, with 249 to 251 °C. As for `O=C(O)CCc1ccc(Cl)s1`, the figure is 50 to 52 °C; as for `CC(C)(C)c1cc(N)n(-c2ccc(F)cc2)n1`, 98 to 100 °C. As for `COc1ccc(C(N)C(=O)O)cc1OC` (configuration not stated), the figure is 218 to 220 °C; as for `O=C(O)c1ccc(-n2cccn2)nc1`, 267 to 269 °C. `CS(=O)(=O)c1ccccc1NC(=O)CCl` yielded a melting point of 118 to 120 °C. On to `O=C(O)C(c1ccccc1)N1CCS(=O)(=O)CC1` (configuration not stated), for which the melting point is 165 to 167 °C. As for `COc1cccc(-n2c(C)nnc2SCC(=O)O)c1`, the figure is 130 to 132 °C; as for `NC(=O)c1cc(S(=O)(=O)N2CCCC2)ccc1O`, 254 to 260 °C; as for `NNC(=O)NC1CCCC1`, 124 to 126 °C. As for `O=S(=O)(NC1CCCNC1)c1ccccc1` (configuration not stated), the figure is 133 to 135 °C; as for `CN1CC(=O)N(c2cccc(N)c2)C1=O`, 131 to 133 °C. `CCN(CC)C(=O)CCC(=O)O`: the melting point lay in the range of 74 to 76 °C. As for `CC1CCc2[nH]c3ccc(C(=O)O)cc3c2C1` (configuration not stated), the figure is 218 to 220 °C; as for `Cc1ccc(-n2nnnc2S)cc1`, 112 to 114 °C.

`CCCn1nc(C)c(C(=O)O)c1C` displayed a melting point of 113 to 115 °C.

In the case of `CCCn1c(=O)[nH]c(=O)c2c(C(=O)O)cc(-c3ccccc3)nc21`, the melting point was 230 to 232 °C. For `Cc1cn(-c2ccccc2)nc1N`, the melting point lay within 119 to 121 °C. Turning to `CCCSc1nsc(N)n1`, the melting point lay within 54 to 56 °C. In turn, `COCc1nc2cc(N)ccc2o1` gave a melting point of 54 to 56 °C. In turn, `O=C(O)c1cccc(S(=O)(=O)NCc2ccccc2)c1` had a melting point of 225 to 227 °C. As for `O=C(O)c1csc(-c2ccoc2)n1`, the figure is 166 to 168 °C; as for `CC(C)(C)OC(=O)NC(COS(C)(=O)=O)COS(C)(=O)=O`, 96 to 98 °C. The molecule `Nc1cccc(S(=O)(=O)Nc2cccc(C(F)(F)F)c2)c1` yielded a melting point of 98 to 100 °C. As for `CS(=O)(=O)Cc1c(C(=O)O)sc2ccccc12`, the figure is 276 to 278 °C; as for `O=C(Nc1ccc(OC(F)(F)F)cc1)OCC(F)(F)F`, 64 to 66 °C; as for `O=C(c1ccc(F)cc1)N1CCCCC(Cl)C1=O` (configuration not stated), 143 to 145 °C.

For the molecule `NC(=NO)c1cccc(OCc2cccnc2)c1`, the melting point fell in the range of 127 to 129 °C. `Cc1cccc(-c2noc(S)n2)c1` displayed a melting point of 119 to 121 °C.

The molecule `CC(C)(C)OC(=O)N[C@@H]1CCCCC[C@H]1N` showed a melting point of 72 to 74 °C.

The molecule `O=C1Nc2cc(N3CCCC3)ccc2C1=O` displayed a melting point of 293 to 295 °C. `OCc1nnc(Cl)s1`: the melting point was 51 to 53 °C. As for `CC(=O)Nc1cccc(C(=O)O)n1`, the figure is 226 to 228 °C.

In turn, `Cc1ccc(NN)nn1` displayed a melting point of 107 to 109 °C.

The molecule `CC(=O)NCc1ccc(S(=O)(=O)Cl)s1` came in with a melting point of 80 to 82 °C. On to `Nc1ccccc1C(=O)NCC(F)(F)F`, for which the melting point was in the range of 125 to 130 °C. Then `O=C(O)Cn1ncc(=O)c2ccccc21`, with 120 to 122 °C. Then `O=C(O)C1CCCN(S(=O)(=O)c2ccc([N+](=O)[O-])cc2)C1` (configuration not stated), with 221 to 223 °C. As for `Cn1cnc2cc(C(=O)O)cnc21`, the figure is 284 to 286 °C. For the molecule `O=C(O)C1CCN(c2ccc(Cl)nn2)CC1`, the melting point fell in the range of 186 to 188 °C. Take `O=C(O)C1CCN(c2ccc(S(=O)(=O)N3CCCCC3)cc2[N+](=O)[O-])CC1`: the melting point was 241 to 243 °C.

`O=C(O)c1cc(O)nc2ccc(Br)cc12` displayed a melting point of 355 to 357 °C.

`Clc1cccc2cc(I)cnc12` returned a melting point of 97 to 99 °C. `Cc1nn(-c2ccccc2F)c(C)c1N` yielded a melting point of 59 to 61 °C. As for `Nc1ncc(Cc2ccc(F)c(F)c2F)s1`, the melting point is 105 to 107 °C.

`CCOC(=O)c1sc(-c2cccc(Br)c2)cc1N` had a melting point of 97 to 99 °C. The molecule `COc1ccc2oc(C(C)=O)c(C)c2c1` registered a melting point of 96 to 98 °C.

`CC(CC(=O)O)S(=O)(=O)c1ccc(F)cc1` (configuration not stated) yielded a melting point of 126 to 128 °C. In turn, `CCOc1ccc(Oc2ccc(C(F)(F)F)cc2N)cc1` gave a melting point of 45 to 47 °C. Then `O=C(O)C1(Cc2ccccc2)CC1`, with 102 to 104 °C. With `CC(C)C1(C)NC(=O)NC1=O` (configuration not stated), the melting point was 176 to 178 °C. With `CC(C)(C)OC(=O)N1CC(OS(C)(=O)=O)C1`, the melting point fell in the range of 65 to 67 °C. As for `O=[N+]([O-])c1cncc(Br)c1Cl`, the figure is 45 to 47 °C. Then `Cc1cc(C(=O)O)sc1-c1cccc(Cl)c1`, with 178 to 180 °C; and `COc1ccc(-c2cc3ncnc(Cl)c3s2)cc1`, with 179 to 181 °C; and `Cc1c([N+](=O)[O-])cc(C(=O)O)cc1S(=O)(=O)Cl`, with 176 to 178 °C. The molecule `COc1ccc(N)cc1OCc1ccncc1` yielded a melting point of 116 to 118 °C.

Regarding `COC(=O)c1cc(S(=O)(=O)Cl)ccc1Cl`, the melting point fell in the range of 79 to 81 °C. As for `Oc1ccccc1CNc1ccc(F)cc1`, the figure is 103 to 105 °C. Then `NC(=NO)c1cccs1`, with 81 to 83 °C; and `NS(=O)(=O)c1ccc(C(=O)O)s1`, with 229 to 231 °C. With `COc1ccc(SCC(=O)O)cc1`, the melting point was in the range of 77 to 79 °C. Then `Brc1cc[nH]n1`, with 74 to 76 °C; and `Cc1cccc(C)c1OCCC(=O)O`, with 51 to 53 °C; and `CC(C)OCc1ccccc1CNC(=O)CCl`, with 40 to 42 °C. Then `Sc1n[nH]c(-c2ccccn2)n1`, with 279 to 281 °C. Consider `Nc1ccc2c(c1)S(=O)(=O)CC2`, for which the melting point lay within 197 to 199 °C. Molecule `O=S(=O)(Cl)c1cccc2c1OCCO2` showed a melting point of 74 to 76 °C. As for `O=C1COc2c(Cl)cccc21`, the melting point lay in the range of 108 to 110 °C. As for `CC(C)C(=O)N(C)Cc1ccc(C(=O)O)cc1`, the figure is 139 to 141 °C.

(Values after a melting point compilation (Tetko et al.).)
